Laboratory results published in PubChem BioAssay AID248 (DTP/NCI, 2004).
Toxic doses and inconclusive results are not listed. Cut-off read from the data, not from the text of the source: active = T/C of 150% or more; inactive = T/C below 125%. Peptide text beside a SMILES is read from it. * marks the point of attachment. Cbz = O=C(OCc1ccccc1)*

Test system: L1210 leukemia ip in BDF1 mice, survival T/C
Test: NCI In Vivo Anticancer Drug Screen. Data for tumor model L1210 Leukemia (intraperitoneal) in B6D2F1 (BDF1) mice
Conditions: endpoint: mean survival time, higher = longer survival
How it was run: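 Survival endpoint. Drug-treated group vs vehicle group, expressed as T divided by C. Tumor passaged by transplantation.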

[1] = dose: 25.0 mg/kg/injection, schedule: Q01DX009 (ip), vehicle: saline
[2] = dose: 50.0 mg/kg/injection, schedule: Q01DX009 (ip), vehicle: saline
[3] = dose: 100.0 mg/kg/injection, schedule: Q01DX009 (ip), vehicle: saline
[4] = dose: 100.0 mg/kg/injection, schedule: Q01DX001 (ip), vehicle: saline
[5] = dose: 200.0 mg/kg/injection, schedule: Q01DX001 (ip), vehicle: saline
[6] = dose: 100.0 mg/kg/injection, schedule: Q04DX003 (ip), vehicle: saline
[7] = dose: 200.0 mg/kg/injection, schedule: Q04DX003 (ip), vehicle: saline
[8] = dose: 400.0 mg/kg/injection, schedule: Q04DX003 (ip), vehicle: saline
[9] = dose: 100.0 mg/kg/injection, schedule: Q01DX001 (ip), vehicle: saline with Tween-80
[10] = dose: 200.0 mg/kg/injection, schedule: Q01DX001 (ip), vehicle: saline with Tween-80
[11] = dose: 400.0 mg/kg/injection, schedule: Q01DX001 (ip), vehicle: saline with Tween-80
[12] = dose: 100.0 mg/kg/injection, schedule: Q04DX003 (ip), vehicle: Klucel (hydroxypropylcellulose) (HPC)
[13] = dose: 200.0 mg/kg/injection, schedule: Q04DX003 (ip), vehicle: Klucel (hydroxypropylcellulose) (HPC)
[14] = dose: 400.0 mg/kg/injection, schedule: Q04DX003 (ip), vehicle: Klucel (hydroxypropylcellulose) (HPC)
[15] = dose: 25.0 mg/kg/injection, schedule: Q01DX009 (ip), vehicle: saline with Tween-80
[16] = dose: 50.0 mg/kg/injection, schedule: Q01DX009 (ip), vehicle: saline with Tween-80
[17] = dose: 100.0 mg/kg/injection, schedule: Q01DX009 (ip), vehicle: saline with Tween-80
[18] = dose: 200.0 mg/kg/injection, schedule: Q01DX009 (ip), vehicle: saline with Tween-80

Measured: T/C

Nc1cc(I)c2cccnc2c1O
inactive: dose: 6.25 mg/kg/injection, schedule: Q01DX009 (ip), vehicle: saline 101 % of control | dose: 10.0 mg/kg/injection, schedule: Q01DX015 (ip), vehicle: saline 95 % of control | dose: 12.5 mg/kg/injection, schedule: Q01DX009 (ip), vehicle: saline 96 % of control | dose: 20.0 mg/kg/injection, schedule: Q01DX015 (ip), vehicle: saline 87 % of control | [1] 102 % of control | [2] 98 % of control

CC1CCc2ccccc2N1CCN (stereo not drawn)
inactive: [1] 103 % of control | [2] 103 % of control | [3] 97 % of control

Cc1cc(C)c(SC2c3ccccc3-c3ccccc32)c(C)c1
inactive: dose: 75.0 mg/kg/injection, schedule: Q01DX009 (ip), vehicle: saline with Tween-80 95 % of control | dose: 150.0 mg/kg/injection, schedule: Q01DX009 (ip), vehicle: saline with Tween-80 102 % of control | dose: 300.0 mg/kg/injection, schedule: Q01DX009 (ip), vehicle: saline with Tween-80 96 % of control

CN/N=C/c1cc(=O)[nH]c(=O)[nH]1
inactive: dose: 50.0 mg/kg/injection, schedule: Q01DX001 (ip), vehicle: saline 101 % of control | [4] 104 % of control | [5] 95 % of control

C[Si](C)(C)n1ccnc1
inactive: [6] 100 % of control | [7] 105 % of control | [8] 94 % of control

CC([NH-])C(C)[NH-].[Cl][Pd][Cl] (stereo not drawn)
inactive: dose: 12.5 mg/kg/injection, schedule: Q04DX002 (ip), vehicle: Klucel (hydroxypropylcellulose) (HPC) 97 % of control | dose: 25.0 mg/kg/injection, schedule: Q04DX002 (ip), vehicle: Klucel (hydroxypropylcellulose) (HPC) 97 % of control | dose: 50.0 mg/kg/injection, schedule: Q04DX002 (ip), vehicle: Klucel (hydroxypropylcellulose) (HPC) 93 % of control | dose: 50.0 mg/kg/injection, schedule: Q04DX002 (ip), vehicle: saline with Tween-80 93 % of control | dose: 100.0 mg/kg/injection, schedule: Q04DX002 (ip), vehicle: saline with Tween-80 90 % of control | dose: 200.0 mg/kg/injection, schedule: Q04DX002 (ip), vehicle: saline with Tween-80 97 % of control

COc1cc(Cc2c(C=O)[nH]c(=S)[nH]c2=O)cc(OC)c1OC
inactive: [9] 90 % of control | [10] 89 % of control | [11] 96 % of control

O=C(NCCCCCCCCNC(=O)N1CC1)N1CC1
inactive: dose: 0.19 mg/kg/injection, schedule: Q01DX009 (ip), vehicle: carboxymethylcellulose (CMC) 101 % of control | dose: 0.29 mg/kg/injection, schedule: Q01DX001 (ip), vehicle: carboxymethylcellulose (CMC) 98 % of control | dose: 0.29 mg/kg/injection, schedule: Q01DX009 (ip), vehicle: carboxymethylcellulose (CMC) 113 % of control | dose: 0.44 mg/kg/injection, schedule: Q01DX001 (ip), vehicle: carboxymethylcellulose (CMC) 95 % of control | dose: 0.44 mg/kg/injection, schedule: Q01DX009 (ip), vehicle: carboxymethylcellulose (CMC) 111 % of control | dose: 0.66 mg/kg/injection, schedule: Q01DX001 (ip), vehicle: carboxymethylcellulose (CMC) 96 % of control | dose: 0.66 mg/kg/injection, schedule: Q01DX009 (ip), vehicle: carboxymethylcellulose (CMC) 108 % of control | dose: 1.0 mg/kg/injection, schedule: Q01DX001 (ip), vehicle: carboxymethylcellulose (CMC) 101 % of control | dose: 1.0 mg/kg/injection, schedule: Q01DX009 (ip), vehicle: carboxymethylcellulose (CMC) 119 % of control | dose: 1.5 mg/kg/injection, schedule: Q01DX009 (ip), vehicle: carboxymethylcellulose (CMC) 109 % of control | dose: 2.25 mg/kg/injection, schedule: Q01DX009 (ip), vehicle: carboxymethylcellulose (CMC) 112 % of control | dose: 6.2 mg/kg/injection, schedule: Q01DX001 (ip), vehicle: carboxymethylcellulose (CMC) 102 % of control

CC(=O)NC(Cc1cnc[nH]1)C(=O)O (stereo not drawn)
inactive: [4] 97 % of control | [5] 98 % of control | dose: 400.0 mg/kg/injection, schedule: Q01DX001 (ip), vehicle: saline 97 % of control

c1ccc(-c2cn3ccccc3n2)cc1
inactive: [9] 94 % of control | [12] 96 % of control | [10] 92 % of control | [13] 94 % of control | [11] 94 % of control | [14] 98 % of control

O=C(O)CNC(CSCc1ccccc1)CSCc1ccccc1
inactive: [15] 101 % of control | [16] 106 % of control | [17] 90 % of control | [18] 97 % of control | dose: 400.0 mg/kg/injection, schedule: Q01DX009 (ip), vehicle: saline with Tween-80 103 % of control

COc1cc(Oc2ccc(OC)c(OC)c2)c(C=O)cc1Br
inactive: dose: 100.0 mg/kg/injection, schedule: Q04DX003 (ip), vehicle: acetone 96 % of control | dose: 200.0 mg/kg/injection, schedule: Q04DX003 (ip), vehicle: acetone 97 % of control | dose: 400.0 mg/kg/injection, schedule: Q04DX003 (ip), vehicle: acetone 97 % of control

S=c1[nH]nc2n1NC(c1ccoc1)=NN2
inactive: [15] 96 % of control | [16] 95 % of control | [17] 97 % of control

COC(C)(C)C(Br)C(=O)OCC(=O)c1ccc(Br)cc1 (stereo not drawn)
inactive: dose: 50.0 mg/kg/injection, schedule: Q01DX001 (ip), vehicle: carboxymethylcellulose (CMC) 104 % of control | dose: 100.0 mg/kg/injection, schedule: Q01DX001 (ip), vehicle: carboxymethylcellulose (CMC) 108 % of control | dose: 200.0 mg/kg/injection, schedule: Q01DX001 (ip), vehicle: carboxymethylcellulose (CMC) 102 % of control | dose: 400.0 mg/kg/injection, schedule: Q01DX001 (ip), vehicle: carboxymethylcellulose (CMC) 102 % of control

CC(=O)C(Br)C(C)=O.CC(=O)C(Br)C(C)=O.CC(=O)C(Br)C(C)=O.[Rh]
inactive: dose: 50.0 mg/kg/injection, schedule: Q01DX001 (ip), vehicle: other 97 % of control | dose: 100.0 mg/kg/injection, schedule: Q01DX001 (ip), vehicle: other 96 % of control | dose: 200.0 mg/kg/injection, schedule: Q01DX001 (ip), vehicle: other 94 % of control | dose: 400.0 mg/kg/injection, schedule: Q01DX001 (ip), vehicle: other 94 % of control

Nc1nc(-c2ccccc2)cc(-c2ccccc2)c1-c1ccccc1
inactive: [16] 108 % of control | [17] 112 % of control | [18] 104 % of control

CC(=O)CC(=O)C(F)(F)F.CC(=O)CC(=O)C(F)(F)F.CC(=O)CC(=O)C(F)(F)F.CC(=O)CC(=O)C(F)(F)F.[Hf]
inactive: dose: 100.0 mg/kg/injection, schedule: Q04DX002 (ip), vehicle: Klucel (hydroxypropylcellulose) (HPC) 104 % of control | dose: 200.0 mg/kg/injection, schedule: Q04DX002 (ip), vehicle: Klucel (hydroxypropylcellulose) (HPC) 93 % of control | dose: 400.0 mg/kg/injection, schedule: Q04DX002 (ip), vehicle: Klucel (hydroxypropylcellulose) (HPC) 96 % of control

NC(CCn1cnc2c(=O)[nH]cnc21)C(=O)O (stereo not drawn)
inactive: [12] 101 % of control | [13] 102 % of control | [14] 96 % of control

COC(=O)CNC(=O)C(CC(C)C)NC(=O)C(CC(C)C)NC(=O)C(C)NC(=O)OCc1ccccc1 (stereo not drawn) (Cbz-ALLG-OMe; configuration not given here)
inactive: [6] 94 % of control | [7] 98 % of control | [8] 98 % of control

CCOC(=O)C(N)C(C)(C)S (stereo not drawn)
inactive: [3] 94 % of control | [6] 96 % of control | dose: 200.0 mg/kg/injection, schedule: Q01DX009 (ip), vehicle: saline 103 % of control | [7] 102 % of control | dose: 400.0 mg/kg/injection, schedule: Q01DX009 (ip), vehicle: saline 100 % of control | [8] 103 % of control

CC(C)(N)CBr
inactive: dose: 100.0 mg/kg/injection, schedule: Q04DX002 (ip), vehicle: saline 100 % of control | dose: 200.0 mg/kg/injection, schedule: Q04DX002 (ip), vehicle: saline 113 % of control | dose: 400.0 mg/kg/injection, schedule: Q04DX002 (ip), vehicle: saline 95 % of control
